Where two headings read alike, the source gives them in different places.
Experiment: Pharmacokinetics in female BALB/c nude mice bearing A375 xenografts, 1 day dosing (PK and PD study): plasma, tumor and brain concentrations, AUC
Format: in vivo
Details: for Mean Concentration in Brain ± SEM / Mean Concentration in Plasma ± SEM / Mean Concentration in Tumor ± SEM: BQL: below the lower limit of quantitation; for AUC at 24 h: read-out: Brain AUC at 24 hours, Average
Source text: The concentrations of Dabrafenib, Compound 26 and Compound 141 in the treatment of female BALB/c nude mice bearing A375 xenografts are shown in Table 62-Table 72 and FIG. 52-FIG. 73.

[1] = 1.5 mg/kg p.o. BID × 1 day, post 2nd dose, 48 h
[2] = 2 mg/kg p.o. TID × 1 day, post 3rd dose, 48 h
[3] = 3 mg/kg p.o. BID × 1 day, post 2nd dose, 36 h
[4] = mouse, brain, po, 1.5 mg/kg, 1.5 mg/kg p.o. BID × 1 day, post 2nd dose, read-out: Mean Concentration in Brain ± SEM
[5] = mouse, brain, po, 2 mg/kg, 2 mg/kg p.o. TID × 1 day, post 3rd dose, read-out: Mean Concentration in Brain ± SEM
[6] = mouse, brain, po, 3 mg/kg, 3 mg/kg p.o. BID × 1 day, post 2nd dose, read-out: Mean Concentration in Brain ± SEM
[7] = mouse, brain, po, 6 mg/kg, 6 mg/kg p.o. QD × 1 day, read-out: Mean Concentration in Brain ± SEM
[8] = mouse, brain, po, 10 mg/kg, 10 mg/kg p.o. BID × 1 day, post 2nd dose, read-out: Mean Concentration in Brain ± SEM
[9] = mouse, plasma, po, 1.5 mg/kg, 1.5 mg/kg p.o. BID × 1 day, post 1st dose, read-out: Mean Concentration in Plasma ± SEM
[10] = mouse, plasma, po, 1.5 mg/kg, 1.5 mg/kg p.o. BID × 1 day, post 2nd dose, read-out: Mean Concentration in Plasma ± SEM
[11] = mouse, plasma, po, 2 mg/kg, 2 mg/kg p.o. TID × 1 day, post 1st dose, read-out: Mean Concentration in Plasma ± SEM
[12] = mouse, plasma, po, 2 mg/kg, 2 mg/kg p.o. TID × 1 day, post 2nd dose, read-out: Mean Concentration in Plasma ± SEM
[13] = mouse, plasma, po, 2 mg/kg, 2 mg/kg p.o. TID × 1 day, post 3rd dose, read-out: Mean Concentration in Plasma ± SEM
[14] = mouse, plasma, po, 3 mg/kg, 3 mg/kg p.o. BID × 1 day, post 1st dose, read-out: Mean Concentration in Plasma ± SEM

Which results are given for `CCN(C)S(=O)(=O)Nc1ccc(F)c(Oc2ccc3ncn([C@H]4COC5(CCN(C6CC7(C6)CN(c6cc8c(cc6F)c(N6CCC(=O)NC6=O)nn8C)C7)CC5)C4)c(=O)c3c2)c1C#N` [Compound 26, (3R)-3-[6-[2-cyano-3-[[ethyl(methyl)sulfamoyl]amino]-6-fluoro-phenoxy]-4-oxo-quinazolin-3-yl]-8-[2-[3-(2,4-dioxohexahydropyrimidin-1-yl)-5-fluoro-1-methyl-indazol-6-yl]-2-azaspiro[3.3]heptan-6-yl]-1-oxa-8-azaspiro[4.5]decane]?
Mean Concentration in Brain ± SEM (1.5 mg/kg p.o. BID × 1 day, post 2nd dose, 24 h): BQL^a; Mean Concentration in Brain ± SEM [1]: BQL; Mean Concentration in Plasma ± SEM [1]: BQL; Mean Concentration in Brain ± SEM (2 mg/kg p.o. TID × 1 day, post 3rd dose, 24 h): BQL^a; Mean Concentration in Brain ± SEM [2]: BQL; Mean Concentration in Plasma ± SEM [2]: BQL; Mean Concentration in Tumor ± SEM [2]: BQL; Mean Concentration in Brain ± SEM (3 mg/kg p.o. BID × 1 day, post 2nd dose, 24 h): BQL^a; Mean Concentration in Brain ± SEM [3]: BQL; Mean Concentration in Tumor ± SEM [3]: BQL; Mean Concentration in Brain ± SEM (3 mg/kg p.o. BID × 1 day, post 2nd dose, 48 h): BQL; Mean Concentration in Brain ± SEM (6 mg/kg p.o. QD × 1 day, 24 h): BQL^a; Mean Concentration in Brain ± SEM (6 mg/kg p.o. QD × 1 day, 48 h): BQL; Mean Concentration in Brain ± SEM (10 mg/kg p.o. BID × 1 day, post 2nd dose, 24 h): BQL^a; Mean Concentration in Brain ± SEM (10 mg/kg p.o. BID × 1 day, post 2nd dose, 48 h): BQL; concentration at 1 h [4]: 25 ± 3.74 ng/g; concentration at 4 h [4]: 21.8 ± 3.64 ng/g; concentration at 10 h [4]: 9.78 ± 0.841 ng/g; concentration at 1 h [5]: 66.5 ± 11.7 ng/g; concentration at 4 h [5]: 26.9 ± 2.99 ng/g; concentration at 10 h [5]: 23 ± 7.44 ng/g; concentration at 0.25 h [6]: 29.7 ng/g; concentration at 0.5 h [6]: 41 ± 4.05 ng/g; concentration at 1 h [6]: 89.1 ± 25 ng/g; concentration at 2 h [6]: 99.5 ± 11.9 ng/g; concentration at 4 h [6]: 35.8 ± 6.52 ng/g; concentration at 10 h [6]: 14.5 ± 0.737 ng/g; concentration at 1 h [7]: 167 ± 27.6 ng/g; concentration at 4 h [7]: 79.2 ± 21.8 ng/g; concentration at 10 h [7]: 30.8 ± 8.11 ng/g; concentration at 1 h [8]: 313 ± 41.7 ng/g; concentration at 4 h [8]: 185 ± 18.2 ng/g; concentration at 10 h [8]: 80.4 ± 8.59 ng/g; AUC at 24 h (mouse, brain, po, 1.5 mg/kg p.o. BID × 1 day): 233 ng·h/mL; AUC at 24 h (mouse, brain, po, 2 mg/kg p.o. TID × 1 day): 451 ng·h/mL; AUC at 24 h (mouse, brain, po, 3 mg/kg p.o. BID × 1 day): 522 ng·h/mL; AUC at 24 h (mouse, brain, po, 6 mg/kg p.o. QD × 1 day): 915 ng·h/mL; AUC at 24 h (mouse, brain, po, 10 mg/kg p.o. BID × 1 day): 2100 ng·h/mL; concentration at 0.25 h [9]: 1180 ± 103 ng/mL; concentration at 0.5 h [9]: 2620 ± 182 ng/mL; concentration at 1 h [9]: 3790 ± 553 ng/mL; concentration at 2 h [9]: 3090 ± 346 ng/mL; concentration at 4 h [9]: 1110 ± 339 ng/mL; concentration at 8 h [9]: 318 ± 78.2 ng/mL; concentration at 12 h (mouse, plasma, po, 1.5 mg/kg, 1.5 mg/kg p.o. BID × 1 day, post 1st dose, 12 h, read-out: Mean Concentration in Plasma ± SEM): 121 ± 6.74 ng/mL; concentration at 0.25 h [10]: 629 ± 24.4 ng/mL; concentration at 0.5 h [10]: 1580 ± 108 ng/mL; concentration at 1 h [10]: 1820 ± 86.6 ng/mL; concentration at 2 h [10]: 2930 ± 312 ng/mL; concentration at 4 h [10]: 1740 ± 355 ng/mL; concentration at 10 h [10]: 541 ± 95.8 ng/mL; concentration at 24 h (mouse, plasma, po, 1.5 mg/kg, 1.5 mg/kg p.o. BID × 1 day, post 2nd dose, 24 h, read-out: Mean Concentration in Plasma ± SEM): 4.74 ± 1.31 ng/mL; concentration at 36 h (mouse, plasma, po, 1.5 mg/kg, 1.5 mg/kg p.o. BID × 1 day, post 2nd dose, 36 h, read-out: Mean Concentration in Plasma ± SEM): 0.889 ng/mL; concentration at 0.25 h [11]: 1600 ± 272 ng/mL; concentration at 0.5 h [11]: 2880 ± 289 ng/mL; concentration at 1 h [11]: 3720 ± 77.7 ng/mL; concentration at 2 h [11]: 2930 ± 635 ng/mL; concentration at 4 h [11]: 1420 ± 56.7 ng/mL; concentration at 8 h [11]: 283 ± 80.3 ng/mL; concentration at 0.25 h [12]: 1390 ± 84.1 ng/mL; concentration at 2 h [12]: 2720 ± 466 ng/mL; concentration at 8 h [12]: 580 ± 166 ng/mL; concentration at 0.25 h [13]: 1090 ± 75.2 ng/mL; concentration at 0.5 h [13]: 2630 ± 81.7 ng/mL; concentration at 1 h [13]: 3780 ± 584 ng/mL; concentration at 2 h [13]: 3680 ± 376 ng/mL; concentration at 4 h [13]: 1770 ± 127 ng/mL; concentration at 10 h [13]: 1250 ± 411 ng/mL; concentration at 24 h (mouse, plasma, po, 2 mg/kg, 2 mg/kg p.o. TID × 1 day, post 3rd dose, 24 h, read-out: Mean Concentration in Plasma ± SEM): 9.4 ± 3.31 ng/mL; concentration at 36 h (mouse, plasma, po, 2 mg/kg, 2 mg/kg p.o. TID × 1 day, post 3rd dose, 36 h, read-out: Mean Concentration in Plasma ± SEM): 1.45 ng/mL; concentration at 0.25 h [14]: 3010 ± 401 ng/mL; concentration at 0.5 h [14]: 8140 ± 2030 ng/mL; concentration at 1 h [14]: 7840 ± 1330 ng/mL; concentration at 2 h [14]: 6910 ± 1450 ng/mL

From patent US20260297060A1, “COMPOUNDS FOR THE DEGRADATION OF MUTANT BRAF” (C4 THERAPEUTICS, INC., priority 2023, published 2026)
